Results taken from patent US20070249670A1, “Glycogen Phosphorylase Inhibitor Compounds and Pharmaceutical Compositions Thereof” (SMITHKLINE BEECHAM CORPORATION, priority 2004, published 2007).
Counter-ions that a name gives are not always drawn.

target: T1, human liver glycogen phosphorylase a (HLGPa) (Homo sapiens, UniProt P06737); test: Human liver glycogen phosphorylase a enzymatic activity assay (coupled, fluorescent resorufin readout, with and without 10 mM glucose); format: biochemical; details: human liver glycogen phosphorylase a enzymatic activity assay
T1 construct: creating a full-length cDNA fused at the 5′ end to codons for methionine-glycine-alanine-histidine; 6xHis tag (leader Met-Gly-Ala-His6-Gly-Gly) (N); made in house; host or cells: E. coli (bacterial expression plasmid pTXK1007LTev)
T1 sequence (P06737 2-847 limits assumed): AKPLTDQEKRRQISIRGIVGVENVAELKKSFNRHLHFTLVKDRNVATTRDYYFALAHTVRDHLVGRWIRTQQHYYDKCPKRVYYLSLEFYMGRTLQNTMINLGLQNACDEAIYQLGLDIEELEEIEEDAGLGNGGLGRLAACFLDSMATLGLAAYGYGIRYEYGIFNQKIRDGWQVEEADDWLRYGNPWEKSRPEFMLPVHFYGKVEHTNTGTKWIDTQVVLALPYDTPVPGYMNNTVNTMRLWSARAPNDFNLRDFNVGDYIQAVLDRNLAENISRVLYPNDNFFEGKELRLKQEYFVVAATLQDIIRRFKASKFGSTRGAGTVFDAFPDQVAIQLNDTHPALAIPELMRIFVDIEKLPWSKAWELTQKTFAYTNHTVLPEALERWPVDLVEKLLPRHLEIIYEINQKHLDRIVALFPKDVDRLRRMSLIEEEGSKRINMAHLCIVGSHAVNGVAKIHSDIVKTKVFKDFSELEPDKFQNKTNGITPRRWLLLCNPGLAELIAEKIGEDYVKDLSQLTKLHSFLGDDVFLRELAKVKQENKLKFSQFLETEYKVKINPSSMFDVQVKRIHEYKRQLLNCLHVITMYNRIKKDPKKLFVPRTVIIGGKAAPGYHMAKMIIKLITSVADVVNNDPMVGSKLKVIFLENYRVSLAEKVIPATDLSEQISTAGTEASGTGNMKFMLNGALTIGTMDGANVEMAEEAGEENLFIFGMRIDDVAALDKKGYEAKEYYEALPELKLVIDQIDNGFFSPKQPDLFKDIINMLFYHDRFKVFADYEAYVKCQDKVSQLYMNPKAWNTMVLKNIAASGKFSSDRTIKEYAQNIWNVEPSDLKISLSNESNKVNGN

Compound | IC50 [nM]
Cc1cccc(Cl)c1NC(=O)Nc1cc2ccccc2cc1C(=O)N[C@@H](Cc1ccc(O)cc1)C(=O)O [Example 64, N-[3-({[(2-chloro-6-methylphenyl)amino]carbonyl}amino)-2-naphthoyl]-L-tyrosine] | 450
CCc1cccc(CC)c1NC(=O)Nc1sc2c(c1C(=O)N[C@@H](CC(=O)O)C(=O)O)CCCC2 [Example 136, N-{[2-({[(2,6-diethylphenyl)amino]carbonyl}amino)-4,5,6,7-tetrahydro-1-benzothien-3-yl]carbonyl}-L-aspartic acid] | 4580
CCc1cccc(CC)c1NC(=O)Nc1cc2ccccc2cc1C(=O)NC(C(=O)O)c1ccccc1 (centres unmarked) [Example 120, {[3-({[(2,6-diethylphenyl)amino]carbonyl}amino)-2-naphthoyl]amino}(phenyl)acetic acid] | 24600
O=C(Nc1ccccc1Cl)Nc1cc(F)c(F)cc1C(=O)N[C@@H](Cc1c[nH]c2ccccc12)C(=O)O [Example 76, N-[2-({[(2-chlorophenyl)amino]carbonyl}amino)-4,5-difluorobenzoyl]-L-tryptophan trifluoroacetate] | 3740
Cc1cccc(Cl)c1NC(=O)Nc1cc2ccccc2cc1C(=O)N[C@@H](Cc1cnc[nH]1)C(=O)O [Example 61, N-[3-({[(2-chloro-6-methylphenyl)amino]carbonyl}amino)-2-naphthoyl]-L-histidine trifluoroacetate] | 450
Cc1cc(CNC(=O)c2cc3ccccc3cc2NC(=O)Nc2c(C)cccc2Cl)on1 [Example 6, 3-({[(2-chloro-6-methylphenyl)amino]carbonyl}amino)-N-[(3-methylisoxazol-5-yl)methyl]-2-naphthamide] | 35100
O=C(Cc1c(Cl)cc(Cl)cc1Cl)Nc1cc2ccccc2cc1C(=O)N[C@H](C(=O)O)C1CCCCC1 [Example 162, (2S)-cyclohexyl[(3-{[(2,4,6-trichlorophenyl)acetyl]amino}-2-naphthoyl)amino]ethanoic acid] | 46
Cc1cccc(C)c1NC(=O)Nc1cc(Cl)ccc1C(=O)O [Example 166] | 8640
O=C(O)C[C@H](NC(=O)c1cc2ccccc2cc1NC(=O)Nc1ccccc1Br)C(=O)O [Example 90, N-[3-({[(2-bromophenyl)amino]carbonyl}amino)-2-naphthoyl]-L-aspartic acid] | 22900
Cc1cccc(Cl)c1NC(=O)Nc1cc(Cl)ccc1C(=O)N[C@@H](CC1CCCCC1)C(=O)O [Example 125, N-[4-chloro-2-({[(2-chloro-6-methylphenyl)amino]carbonyl}amino)benzoyl]-3-cyclohexyl-L-alanine] | 28600
Cc1cc(C)c(NC(=O)Nc2cc([N+](=O)[O-])ccc2C(=O)N[C@H](C(=O)O)C2CCCCC2)c(C)c1 [Example 195, (2S)-Cyclohexyl({[4-nitro-2-({[(2,4,6-trimethylphenyl)amino]carbonyl}amino)phenyl]carbonyl}amino)ethanoic acid] | 550
Cc1cccc(C)c1NC(=O)Nc1cc(Br)ccc1C(=O)N[C@H](C(=O)O)C1CCCCC1 [Example 173, (2S)-({[4-Bromo-2-({[(2,6-dimethylphenyl)amino]carbonyl}amino)phenyl]carbonyl}amino)(cyclohexyl)-ethanoic acid] | 310

Further lines, results first:

IC50 [nM] | Compound
30 | C=CCc1cc(C)c(NC(=O)Nc2cc(F)ccc2C(=O)N[C@H](C(=O)O)C2CCCCC2)c(C)c1 [Example 476, (2S)-cyclohexyl[({2-[({[2,6-dimethyl-4-(2-propen-1-yl)phenyl]amino}carbonyl)amino]-4-fluorophenyl}carbonyl)amino]ethanoic acid]
3 | CCCCCc1cc(C)c(NC(=O)Nc2cc(F)ccc2C(=O)N[C@H](C(=O)O)C2CCCCC2)c(C)c1 [Example 478, (2S)-cyclohexyl({[2-({[(2,6-dimethyl-4-pentylphenyl)amino]carbonyl}amino)-4-fluorophenyl]carbonyl}amino)ethanoic acid]
6700 | O=C(Nc1sc(Cc2ccccc2)cc1C(=O)N[C@H](C(=O)O)C1CCCCC1)Nc1c(Cl)cccc1Cl [Example 399]
10600 | O=C(Nc1sc(Br)cc1C(=O)O)Nc1c(Cl)cccc1Cl [Example 413, 5-bromo-2-({[(2,6-dichlorophenyl)amino]carbonyl}amino)-3-thiophenecarboxylic acid]
1900 | Cc1cc(C)c(NC(=O)Nc2cc(F)ccc2C(=O)N[C@@H](CCNC(=O)OC(C)(C)C)C(=O)O)c(C)c1 [Example 515, (2S)-4-({[(1,1-dimethylethyl)oxy]carbonyl}amino)-2-({[4-fluoro-2-({[(2,4,6-trimethylphenyl)amino]carbonyl}amino)phenyl]carbonyl}amino)butanoic acid]

same assay, conditions: human liver glycogen phosphorylase a; table does not say whether with or without 10 mM glucose

IC50 [nM] | Compound
5 | Cc1cc(C)c(NC(=O)Nc2cc(-c3ccc(F)c(F)c3)ccc2C(=O)N[C@H](C(=O)O)[C@@H](C)OC(C)(C)C)c(C)c1 [Example 373, N-{[3′,4′-difluoro-3-({[(2,4,6-trimethylphenyl)amino]carbonyl}amino)-4-biphenylyl]carbonyl}-O-(1,1-dimethylethyl)-L-threonine]
3310 | Cc1cc(C)c(NC(=O)Nc2cc3ccccc3cc2C(=O)NC2(C(=O)O)CCS(=O)(=O)CC2)c(C)c1 [Example 285, 4-({[3-({[(2,4,6-Trimethylphenyl)amino]carbonyl}amino)-2-naphthalenyl]carbonyl}amino)tetrahydro-2H-thiopyran-4-carboxylic acid 1,1-dioxide]
3000 | O=C(Nc1cc2ccccc2cc1C(=O)NC1(C(=O)O)CCCC1)Nc1c(Cl)cc(Cl)cc1Cl [Example 279, 1-({[3-({[(2,4,6-Trichlorophenyl)amino]carbonyl}amino)-2-naphthalenyl]carbonyl}amino)cyclopentanecarboxylic acid]
10 | COc1ccc(-c2ccc(C(=O)NC3(C(=O)O)CCCCCCC3)c(NC(=O)Nc3c(C)cc(C)cc3C)c2)cc1F [Example 238, 1-({[3′-Fluoro-4′-(methyloxy)-3-({[(2,4,6-trimethylphenyl)amino]carbonyl}amino)-4-biphenylyl]carbonyl}amino)cyclooctanecarboxylic acid]
15600 | Cc1cc(C)c(NC(=O)Nc2nc3ccccc3cc2C(=O)N[C@H](C(=O)O)C2CCCCC2)c(C)c1 [Example 297, (2S)-cyclohexyl({[2-({[(2,4,6-trimethylphenyl)amino]carbonyl}amino)-3-quinolinyl]carbonyl}amino)ethanoic acid]
210 | Cc1cc(C)c(NC(=O)Nc2cc3ccccc3cc2C(=O)N[C@@](C)(CC(C)C)C(=O)O)c(C)c1 [Example 269, 2-methyl-N-{[3-({[(2,4,6-trimethylphenyl)amino]carbonyl}amino)-2-naphthalenyl]carbonyl}leucine]
100 | COc1ccc(-c2ccc(C(=O)N[C@@H](CC(N)=O)C(=O)O)c(NC(=O)Nc3c(C)cc(C)cc3C)c2)cc1 [Example 378, N^2-{[4′-(methyloxy)-3-({[(2,4,6-trimethylphenyl)amino]carbonyl}amino)-4-biphenylyl]carbonyl}-L-asparagine]
160 | CCCC[C@H](NC(=O)c1nc2ccccc2cc1NC(=O)Nc1c(C)cc(C)cc1C)C(=O)O [Example 313, N-{[3-({[(2,4,6-trimethylphenyl)amino]carbonyl}amino)-2-quinolinyl]carbonyl}-L-norleucine]
110 | Cc1cc(C)c(NC(=O)Nc2cc(-c3ccc(F)c(F)c3)ccc2C(=O)N[C@H](CC(=O)O)C(=O)O)c(C)c1 [Example 376, N-{[3′,4′-difluoro-3-({[(2,4,6-trimethylphenyl)amino]carbonyl}amino)-4-biphenylyl]carbonyl}-D-aspartic acid]
1150 | Cc1cc(C)c(NC(=O)Nc2cc3ccccc3cc2C(=O)NC2(C(=O)O)CCOCC2)c(C)c1 [Example 282, 4-({[3-({[(2,4,6-Trimethylphenyl)amino]carbonyl}amino)-2-naphthalenyl]carbonyl}amino)tetrahydro-2H-pyran-4-carboxylic acid]
94 | CCCc1cc(C)c(NC(=O)Nc2cc(-c3ccc(OC)cc3)ccc2C(=O)N[C@@H](CC(=O)OCC)C(=O)O)c(C)c1 [Example 369, (2S)-2-({[3-({[(2,6-dimethyl-4-propylphenyl)amino]carbonyl}amino)-4′-(methyloxy)-4-biphenylyl]carbonyl}amino)-4-(ethyloxy)-4-oxobutanoic acid]
300 | Cc1cc(C)c(NC(=O)Nc2cc(F)ccc2C(=O)NC2(C(=O)O)CCCCCC2)c(C)c1 [Example 221, 1-({[4-Fluoro-2-({[(2,4,6-trimethylphenyl)amino]carbonyl}amino)phenyl]carbonyl}amino)cycloheptane-carboxylic acid]
